# Results published in patent US7838535B2, “Compounds having β2 adrenergic receptor agonist and muscarinic receptor antagonist activity” (Theravance, Inc., priority 2003, dated 2010).
# pKi: −log10 of the molar value. Counter-ions that a name gives are not always drawn.
# Tests used:
# hM2 receptor = target: T1, hM2 receptor (Homo sapiens, UniProt P08172); assay: Blockade of agonist-mediated [35S]GTPγS binding, CHO-K1 membranes expressing hM2; format: biochemical; details: CHO-K1 cells expressing the hM2 receptor; read-out: Ki value for blockade of oxotremorine-stimulated [35S]GTPγS-binding
# T1 construct: expressed in transfected cells
# T1 sequence (P08172 1-466): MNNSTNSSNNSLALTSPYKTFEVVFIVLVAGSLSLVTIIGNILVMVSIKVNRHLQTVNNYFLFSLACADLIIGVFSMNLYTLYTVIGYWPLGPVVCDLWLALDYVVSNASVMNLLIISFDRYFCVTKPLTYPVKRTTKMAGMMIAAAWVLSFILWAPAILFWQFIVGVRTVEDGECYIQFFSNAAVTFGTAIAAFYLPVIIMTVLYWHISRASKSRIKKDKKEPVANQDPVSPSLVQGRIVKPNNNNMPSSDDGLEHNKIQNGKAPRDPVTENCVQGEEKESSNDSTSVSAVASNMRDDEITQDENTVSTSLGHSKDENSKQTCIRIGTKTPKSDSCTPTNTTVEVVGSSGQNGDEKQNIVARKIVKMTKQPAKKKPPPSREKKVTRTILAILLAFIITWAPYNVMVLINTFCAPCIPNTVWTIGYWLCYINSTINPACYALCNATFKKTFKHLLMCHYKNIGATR
# Description: In a second functional assay, the functional potency of test compounds is determined by measuring the ability of the compounds to block oxotremorine-stimulated [^35S]GTPγS binding in CHO-K1 cells expressing the hM2 receptor.
# At the time of use, frozen membranes were thawed and then diluted in assay buffer with a final target tissue concentration of 5-10 μg protein per well. The membranes were briefly homogenized using a Polytron PT-2100 tissue disrupter and then added to the assay plates.
# The EC90 value (effective concentration for 90% maximal response) for stimulation of [^35S]GTPγS binding by the agonist oxotremorine was determined in each experiment.
# To determine the ability of a test compound to inhibit oxotremorine-stimulated [^35S]GTPγS binding, the following was added to each well of 96 well plates: 25 μL of assay buffer with [^35S]GTPγS (0.4 nM), 25 μL of oxotremorine (EC90) and GDP (3 uM), 25 μL of diluted test compound and 25 μL CHO cell membranes expressing the hM2 receptor. […] Microscint-20 scintillation liquid (50 μL) was added to each well, and each plate was sealed and radioactivity counted on a Topcounter (PerkinElmer). Data were analyzed by nonlinear regression analysis with the GraphPad Prism Software package (GraphPad Software, Inc., San Diego, Calif.) using the non-linear regression, one-site competition equation. […]
# [1] = target: T2, human dopamine D2S receptor (Homo sapiens, UniProt P14416); assay: Radioligand competition binding assay in cloned human dopamine D2S receptor; details: test concentration 100 nM, 0.3 nM [3H]spiperone, transfected CHO cell membranes; read-out: percent inhibition of the control radioligand specific binding
# T2 construct: expressed in transfected cells; host or cells: CHO cells, transfected, cell membrane homogenates
# Description: In this assay, the binding affinity of test compounds for the human dopamine D2S receptor in transfected CHO cells is determined using a radioligand binding assay (Grady et al., Proc. Natl. Acad. Sci. USA 86:9762 (1989). Cell membrane homogenates (5-10 μg protein) were incubated for 60 minutes at 22° C. with 0.3 nM [^3H]spiperone in the absence or presence of a test compound in a buffer containing 50 mM Tris-HCl (pH 7.4), 120 mM NaCl, 5 mM KCl, 5 mM MgCl2 and 1 mM EDTA. The test compound was used at a test concentration of 100 nM. Nonspecific binding was determined in the presence of 10 μM (+)-butaclamol. Following incubation, the samples were filtered rapidly under vacuum through glass fiber filters (GF/B, Packard) presoaked with 0.3% polyethyleneimine and rinsed several times with ice-cold 50 mM Tris-HCl using a 96-sample cell harvester (Unifilter, Packard). The filters were dried, and then counted for radioactivity in a scintillation counter (Topcount, Packard) using a scintillation cocktail (Microscint 0, Packard). The results were expressed as a percent inhibition of the control radioligand specific binding.
# T2 sequence (P14416 1-414 isoform P14416-2): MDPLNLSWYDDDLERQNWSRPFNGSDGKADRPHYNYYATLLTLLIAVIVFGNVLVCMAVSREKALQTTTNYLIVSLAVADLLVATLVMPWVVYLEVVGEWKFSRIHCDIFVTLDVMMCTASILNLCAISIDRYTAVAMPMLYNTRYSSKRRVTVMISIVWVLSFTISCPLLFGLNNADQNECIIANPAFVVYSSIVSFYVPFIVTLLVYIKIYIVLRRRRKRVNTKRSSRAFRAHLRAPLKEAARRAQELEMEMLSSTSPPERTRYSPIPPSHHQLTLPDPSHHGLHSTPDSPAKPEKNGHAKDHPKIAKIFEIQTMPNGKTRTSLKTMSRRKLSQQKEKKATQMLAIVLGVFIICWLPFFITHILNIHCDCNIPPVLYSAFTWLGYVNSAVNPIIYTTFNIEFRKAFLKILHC
SMILES,pKi (hM2 receptor),inhibition at 0.1 µM [1] [%]
"O=C(Nc1ccccc1-c1ccccc1)OC1CCN(CCCCCCCCCNCCc2ccc(O)c3[nH]c(=O)sc23)CC1 [Example 1, Biphenyl-2-ylcarbamic Acid 1-{9-[2-(4-Hydroxy-2-oxo-2,3-dihydrobenzothiazol-7-yl)-ethylamino]nonyl}piperidin-4-yl Ester Bis(trifluoroacetate) Salt]",> 8.00,> 75
"O=C(CCN1CCC(OC(=O)Nc2ccccc2-c2ccccc2)CC1)Nc1ccc(CNCCc2ccc(O)c3[nH]c(=O)sc23)cc1 [Example 2, Biphenyl-2-ylcarbamic Acid 1-[2-(4-{[2-(4-Hydroxy-2-oxo-2,3-dihydrobenzothiazol-7-yl)ethylamino]methyl}phenylcarbamoyl)ethyl]-piperidin-4-yl Ester Bis(trifluoroacetate) Salt]",–,> 30
